According to US20260327243A1, “SPIRO-HETEROCYCLIC INHIBITORS OF KRAS G12C MUTANT PROTEINS AND USES THEREOF” (AMGEN INC., priority 2023, published 2026):
Where two headings read alike, the source gives them in different places.

Assays:
KRAS^G12C = KRAS^G12C (Homo sapiens, UniProt P01116, C118A/G12C); assay: Coupled Nucleotide Exchange Assay; format: biochemical; conditions: GDP-bound KRAS (aa 1-169) G12C/C118A; 2 h compound pre-incubation; SOS-mediated exchange, 30 min; cRAF binding (AlphaLISA)
In short: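 GDP-bound His-tagged KRAS aa 1-169 (G12C/C118A) pre-incubated 2 h with compound in 25 mM HEPES pH 7.4, 10 mM MgCl2, 0.01% Triton X-100 (±0.1% BSA), then SOS (aa 564-1049) plus GTP added for 30 min. GST-cRAF RBD binding read by AlphaLISA; DMSO-normalized, 4-parameter fit gives IC50.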

A549 cells = assay: Cell Viability Assay, A549; format: cell-based; conditions: A549; human lung carcinoma; 72 h; CellTiter-Glo
MIA PaCa-2 cells = assay: Cell Viability Assay, MIA PaCa-2; format: cell-based; conditions: Homo sapiens, MIA PaCa-2, 72 h, human pancreatic carcinoma, CellTiter-Glo
KRAS p.G12C tumors = conditions: mice bearing KRAS p.G12C tumors; Hong et al. 2020; cited from earlier work
[1] = test system: extracellular signal-regulated kinase (ERK); conditions: preclinical studies; Hong et al. 2020; cited from earlier work
[2] = test system: advanced or metastatic cancer with the KRAS G12C mutation; conditions: cited from earlier work; for disease control rate: Hong et al. 2020

Chain of KRAS^G12C (P01116 1-169 isoform P01116-2 G12C/C118A): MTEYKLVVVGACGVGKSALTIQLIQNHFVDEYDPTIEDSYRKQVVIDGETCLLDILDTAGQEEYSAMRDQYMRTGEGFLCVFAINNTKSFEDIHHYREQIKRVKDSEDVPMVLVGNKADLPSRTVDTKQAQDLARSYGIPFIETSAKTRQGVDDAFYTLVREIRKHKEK

IC50 (KRAS^G12C) [nM] | IC50 (A549 cells) [nM] | IC50 (MIA PaCa-2 cells) [nM] | Compound | tumor regression (KRAS p.G12C tumors) | inhibition of phosphorylation of ERK [1] | response by cancer type ([2]; NSCLC, colorectal, pancreatic, appendiceal, endometrial, esophageal, unknown primary, ampullary, gastric, small bowel, sinonasal, bile duct cancer, melanoma) | disease control rate ([2]; colorectal cancer, 42 subjects) [%] | disease control rate ([2]; non-small cell lung cancer, 59 subjects) [%] | disease control rate ([2]; other tumor types, 28 subjects) [%]
23 | > 5000 | 77 | C=CC(=O)N1CCN([C@@H]2CN(c3cc(N4CCC5(CC4)OC4(COC4)c4nccc(C)c45)nc(C(F)(F)F)n3)[C@@H]2C)CC1 [Compound 3-102, 1-(4-((2R,3R)-2-methyl-1-(6-(4′-methyl-1″H-dispiro[oxetane-3,7′-furo[3,4-b]pyridine-5′.4″-piperidin]-1″- yl)-2-(trifluoromethyl)-4-pyrimidinyl)-3-azetidinyl)-1-piperazinyl)-2-propen-1-one] | – | – | – | – | – | –
36 | > 5000 | 171 | C=CC(=O)N1CCN([C@@H]2CN(c3cc(N4CCC5(CC4)OC4(COC4)c4nccc(C)c45)nc(C(F)F)n3)[C@@H]2C)CC1 [Compound 3-103, 1-(4-((2R,3R)-1-(2-(difluoromethyl)-6-(4′-methyl-1″H-dispiro[oxetane-3,7′-furo[3,4-b]pyridine-5′,4″- piperidin]-1″-yl)-4-pyrimidinyl)-2-methyl-3-azetidinyl)-1-piperazinyl)-2-propen-1-one] | – | – | – | – | – | –
21 | > 5000 | 81 | C=CC(=O)N1CCN([C@@H]2CN(c3cc(N4CC[C@]5(C[C@H]4C)OC4(COC4)c4nccc(C)c45)nc(C(F)(F)F)n3)[C@@H]2C)CC1 [Compound 3-104, 1-(4-((2R,3R)-1-(6-((2″R,5′R)-2″,4′-dimethyl-1″H-dispiro[oxetane-3,7′-furo[3,4-b]pyridine-5′,4″-piperidin]-1″- yl)-2-(trifluoromethyl)-4-pyrimidinyl)-2-methyl-3-azetidinyl)-1-piperazinyl)-2-propen-1-one] | – | – | – | – | – | –
– | – | – | C=CC(=O)N1CCN(c2nc(=O)n(-c3c(C)ccnc3C(C)C)c3nc(-c4c(O)cccc4F)c(F)cc23)[C@@H](C)C1 [Sotorasib, sotorasib] | durable complete tumor regression | inhibited nearly all detectable phosphorylation of extracellular signal-regulated kinase (ERK) | either stable disease (SD) or partial response (PR) | 73.8 | 88.1 | 75.0
